Broadly, the LD50 is the dose at which mortality reaches 50%.

Data on three compounds can be found in patent US8895538B2, “Combination and composition that contains an antimicrobial, a glucocorticoid and an antimycotic” (Laboratories Senosiain S.A. de C.V., priority 2009, dated 2014).

The conditions of data set [1]: cited from earlier work.
For a further data set, the system named is mice. The conditions noted are these: administered orally; cited from earlier work.
The test system of the next data set is rats. Particulars: administered orally; cited from earlier work.
For data set [2] the following is noted: in vivo; cited from earlier work.
The nature of data set [3]: Laboratory assays of sensitivity, solubility and stability of the active agents at different pH conditions. It is filed as physicochemical. The procedure: Laboratory assays were carried out for verifying the sensitivity, solubility and stability of the active agents at different pH conditions. Thus, their stability was tested at different pH conditions. Due to the sensitivity of the active agents, the addition order of these components, as well as the excipient and vehicle selection are of great importance for avoiding degradation or incompatibilities of said active agents.

For the compound `C[C@H]1C[C@H]2[C@@H]3CCC4=CC(=O)C=C[C@]4(C)[C@@]3(F)[C@@H](O)C[C@]2(C)[C@@]1(O)C(=O)CO` [Betametasone], the solubility in water entry in data set [1] (water) is recorded as “almost insoluble”.
Regarding `Clc1ccccc1C(c1ccccc1)(c1ccccc1)n1ccnc1` [Clotrimazole], the figures for the median lethal dose (LD50) in the data set with mice and in the data set on rats were 923 mg/kg and 708 mg/kg, respectively. Besides, the “absorbed in topical applications” value in data set [2] is 3-10 % of the dose. In data set [1] (acid solution, high temperature), the “hydrolysis in acid solution at high temperature” value is reported as “rapidly hydrolised”.
Consider `CC(=O)O[C@H]1C[C@@]2(C)[C@@H](C[C@@H](O)[C@H]3[C@@]4(C)CC[C@@H](O)[C@@H](C)[C@@H]4CC[C@@]32C)/C1=C(\CCC=C(C)C)C(=O)O` [Fusidic acid], for which the “stability in the presence of acid substances” value in data set [3] is “greatly reduced”.
